In patent publication US8546429B2, “1,2,3-trisubstituted aryl and heteroaryl derivatives as modulators of metabolism and the prophylaxis and treatment of disorders related thereto” (Arena Pharmaceuticals, Inc., priority 2003, dated 2013):

Legend:
[1] = target: T1, RUP3 (Homo sapiens, UniProt Q8TDV5); test: RUP3 dose responses in melanophores; format: cell-based; settings: melanophores transfected with RUP3 expression vector; Table 8
T1 construct: expressed in transfected cells; host or cells: melanophores, electroporated
T1 sequence (Q8TDV5 1-335): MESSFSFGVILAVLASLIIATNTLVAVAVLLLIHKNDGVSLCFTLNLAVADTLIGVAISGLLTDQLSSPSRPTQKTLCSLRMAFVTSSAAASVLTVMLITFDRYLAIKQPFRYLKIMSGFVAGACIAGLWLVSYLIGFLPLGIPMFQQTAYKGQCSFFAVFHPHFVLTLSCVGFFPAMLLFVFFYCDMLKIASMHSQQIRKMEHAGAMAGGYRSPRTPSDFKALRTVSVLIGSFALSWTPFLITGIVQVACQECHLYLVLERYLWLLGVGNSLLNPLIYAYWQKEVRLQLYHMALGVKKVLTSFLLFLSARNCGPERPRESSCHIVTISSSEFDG
Procedure: Melanophores are maintained in culture as reported by Potenza, M. N. and Lerner, M. R., in Pigment Cell Research, Vol. 5, 372-378, 1992 and transfected with the RUP3 expression vector (pCMV) using electroporation. Following electroporation, the transfected cells are plated into 96 well plates for the assay. The cells are then allowed to grow for 48 hours in order to both recover from the electroporation procedure and attain maximal receptor expression levels.
On the assay day, the growth medium on the cells is replaced with serum-free buffer containing 10 nM melatonin. The melatonin acts via an endogenous Gi-coupled GPCR in the melanophores to lower intracellular cAMP levels. In response to lowered cAMP levels, the melanophores translocate their pigment to the center of the cell. The net effect of this is a significant decrease in the absorbance reading of the cell monolayer in the well, measured at […].
After a 1-hour incubation in melatonin, the cells become completely pigment-aggregated. At this point a baseline absorbance reading is collected. Serial dilutions of test compounds are then added to the plate and compounds that stimulate RUP3 produce increases in intracellular cAMP levels. In response to these increased cAMP levels, the melanophores translocate their pigment back into the cell periphery. After one hour, stimulated cells are fully pigment-dispersed. The cell monolayer in the dispersed state absorbs much more light in the 600-650 nm range. The measured increase in absorbance compared to the baseline reading allows one to quantitate the degree of receptor stimulation and plot a dose-response curve.
The compounds in the above examples were screened using the melanophore assay.

[2] = tested on: Male Sprague Dawley rats; test: Oral glucose tolerance test (oGTT) in rats; format: in vivo, rat; settings: for % inhibition of glucose excursion: mean of six rats, dextrose 2 g/kg oral challenge; for effect on blood glucose after challenge with glucose: rats, p.o., oGTT
Procedure: Male Sprague Dawley rats weighing approximately 200 g-250 g were fasted for 15 hours and randomly grouped (n=6) to receive a RUP3 agonist (Compounds A78, A88 or A118) at 3, 10 or 30 mg/kg. Compounds were delivered orally via a gavage needle (p.o., volume 3 ml/kg). At time 0, levels of blood glucose were assessed using a glucometer (Elite XL, Bayer), and rats were administered either vehicle (20% hydroxypropyl-beta-cyclodextrin) or test compound. Thirty minutes after administration of test compound, levels of blood glucose were again assessed, and rats were administered dextrose orally at a dose of 2 g/kg. Blood glucose measurements were then taken 30 min, 60 min, and 120 min after this time.

[3] = target: T2, RUP3 (Mesocricetus auratus, UniProt A0A1U8CD06); test: Stimulation of cAMP in HIT-T15 cells (cAMP Flashplate Assay); format: cell-based, hamster; settings: Table 6
T2 construct: host or cells: HIT-T15 hamster insulin-producing cells
T2 sequence (A0A1U8CD06 1-334): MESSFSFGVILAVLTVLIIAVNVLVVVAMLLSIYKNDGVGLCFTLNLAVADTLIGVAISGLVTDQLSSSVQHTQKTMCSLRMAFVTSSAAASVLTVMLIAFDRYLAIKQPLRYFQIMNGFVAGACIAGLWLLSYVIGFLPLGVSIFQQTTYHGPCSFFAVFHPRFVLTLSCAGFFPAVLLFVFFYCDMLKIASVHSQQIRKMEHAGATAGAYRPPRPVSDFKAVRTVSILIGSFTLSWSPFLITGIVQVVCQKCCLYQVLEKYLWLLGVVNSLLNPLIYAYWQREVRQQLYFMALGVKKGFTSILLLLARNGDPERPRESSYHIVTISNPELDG
Procedure: HIT-T15 (ATCC CRL#1777) is an immortalized hamster insulin-producing cell line. These cells express RUP3 and therefore can be used to assess the ability of RUP3 ligands to stimulate or inhibit cAMP accumulation via its endogenously expressed receptor. In this assay, cells are grown to 80% confluence and then distributed into a 96-well Flashplate (50,000 cells/well) for detection of cAMP via a “cAMP Flashplate Assay” (NEN, Cat #SMP004). Briefly, cells are placed into anti-cAMP antibody-coated wells that contain either vehicle, the test ligand(s) at a concentration of interest, or 1 uM forskolin. The latter is a direct activator of adenylyl cyclase and serves as a positive control for stimulation of cAMP in HIT-T15 cells. All conditions are tested in triplicate. After a 1 hour incubation to allow for stimulation of cAMP, a Detection Mix containing ^125I-cAMP is added to each well and the plate is allowed to incubate for another 1 hour. The wells are then aspirated to remove unbound ^125I-cAMP. Bound ^125I-cAMP is detected using a Wallac Microbeta Counter. The amount of cAMP in each sample is determined by comparison to a standard curve, obtained by placing known concentrations of cAMP in some wells on the plate.
A number of the compounds disclosed herein were screened using the above described assay.

| SMILES | EC50 [1] [nM] | other results |
| --- | --- | --- |
| CS(=O)(=O)c1ccc(Nc2ncnc(OC3CCN(S(C)(=O)=O)CC3)c2[N+](=O)[O-])cc1 [Compound A27, (4-Methanesulfonyl-phenyl)-[6-(1-methanesulfonyl-piperidin-4-yloxy)-5-nitro-pyrimidin-4-yl]-amine] | 76.5 | – |
| CC(C)OC(=O)N1CCC(Oc2ncnc(Nc3ccc(S(C)(=O)=O)cc3F)c2C#N)CC1 [Compound A78, 4-[5-Cyano-6-(2-fluoro-4-methanesulfonyl-phenylamino)-pyrimidin-4-yloxy]-piperidine-1-carboxylic acid isopropyl ester] | – | % inhibition of glucose excursion ([2]; 10 mg/kg p.o.): 39%, (10); effect on blood glucose after challenge with glucose [2]: lowered blood glucose |
| CC(C)OC(=O)N1CCC(Oc2ncnc(Nc3ccc(S(C)(=O)=O)cc3)c2C#N)CC1 [Compound A39, 4-[5-Cyano-6-(4-methanesulfonyl-phenylamino)-pyrimidin-4-yloxy]-piperidine-1-carboxylic acid isopropyl ester] | 16.9 | – |
| CC(C)(C)OC(=O)N1CCC(CCOc2ncnc(Nc3ccc(S(C)(=O)=O)cc3)c2[N+](=O)[O-])CC1 [Compound A14, 4-{2-[6-(4-Methanesulfonyl-phenylamino)-5-nitro-pyrimidin-4-yloxy]-ethyl}-piperidine-1-carboxylic acid tert-butyl ester] | 242 | – |
| Cc1c(Nc2cc(F)c(C#N)cc2F)ncnc1OC1CCN(C(=O)OC(C)C)CC1 [Compound A88, 4-[6-(4-Cyano-2,5-difluoro-phenylamino)-5-methyl-pyrimidin-4-yloxy]-piperidine-1-carboxylic acid isopropyl ester] | – | % inhibition of glucose excursion ([2]; 30 mg/kg p.o.): 38%, (30); effect on blood glucose after challenge with glucose [2]: lowered blood glucose |
| CC(C)(C)OC(=O)N1CCC(Oc2ncnc(Nc3ccc(S(C)(=O)=O)cc3F)c2[N+](=O)[O-])CC1 [Compound A34, 4-[6-(2-Fluoro-4-methanesulfonyl-phenylamino)-5-nitro-pyrimidin-4-yloxy]-piperidine-1-carboxylic acid tert-butyl ester] | – | EC50 [3]: 27 nM |
| CC(C)(C)C(=O)N1CCC(Nc2ncnc(Nc3ccc(S(C)(=O)=O)cc3)c2[N+](=O)[O-])CC1 [Compound B4, 1-{4-[6-(4-Methanesulfonyl-phenylamino)-5-nitro-pyrimidin-4-ylamino]-piperidin-1-yl}-2,2-dimethyl-propan-1-one] | 300 | – |
| Cc1c(Oc2ccc(CCn3ccnc3)cc2F)ncnc1OC1CCN(C(=O)OC(C)C)CC1 [Compound C168, 4-{6-[2-Fluoro-4-(2-imidazol-1-yl-ethyl)-phenoxy]-5-methyl-pyrimidin-4-yloxy}-piperidine-1-carboxylic acid isopropyl ester] | 28.3 | – |
| CC(C)(C)OC(=O)N1CCC(Oc2ncnc(Nc3ccc(S(C)(=O)=O)cc3)c2C#N)CC1 [Compound A35, 4-[5-Cyano-6-(4-methanesulfonyl-phenylamino)-pyrimidin-4-yloxy]-piperidine-1-carboxylic acid tert-butyl ester] | – | EC50 [3]: 59 nM |
| Cc1nc(C)c(S(=O)(=O)N2CCC(Oc3ncnc(Nc4ccc(S(C)(=O)=O)cc4)c3[N+](=O)[O-])CC2)s1 [Compound A32, {6-[1-(2,4-Dimethyl-thiazole-5-sulfonyl)-piperidin-4-yloxy]-5-nitro-pyrimidin-4-yl}-(4-methanesulfonyl-phenyl)-amine] | 43.5 | – |
| Cc1nc(Cl)ccc1Nc1ncnc(OC2CCN(C(=O)OC(C)C)CC2)c1C [Compound A90, 4-[6-(6-Chloro-2-methyl-pyridin-3-ylamino)-5-methyl-pyrimidin-4-yloxy]-piperidine-1-carboxylic acid isopropyl ester] | 52 | – |
| CS(=O)(=O)c1ccc(Nc2ncnc(OC3CCN(C(=O)c4cccnc4)CC3)c2[N+](=O)[O-])cc1 [Compound A24, {4-[6-(4-Methanesulfonyl-phenylamino)-5-nitro-pyrimidin-4-yloxy]-piperidin-1-yl}-pyridin-3-yl-methanone] | 185 | – |
| Cc1c(OC2CCN(C(=O)OC(C)C)CC2)ccnc1Nc1ccc(S(C)(=O)=O)cc1F [Compound A118, 4-[2-(2-Fluoro-4-methanesulfonyl-phenylamino)-3-methyl-pyridin-4-yloxy]-piperidine-1-carboxylic acid isopropyl ester] | – | % inhibition of glucose excursion ([2]; 30 mg/kg p.o.): 43%, (30); effect on blood glucose after challenge with glucose [2]: lowered blood glucose |
| CC(C)(C)OC(=O)N1CCC(Oc2ncnc(Nc3ccc(S(C)(=O)=O)cc3)c2[N+](=O)[O-])CC1 [Compound A1, 4-[6-(4-Methanesulfonyl-phenylamino)-5-nitro-pyrimidin-4-yloxy]-piperidine-1-carboxylic acid tert-butyl ester] | – | EC50 [3]: 20 nM |
| CC(C)(C)C(=O)CN1CCC(Oc2ncnc(Nc3ccc(S(C)(=O)=O)cc3)c2[N+](=O)[O-])CC1 [Compound A11, 1-{4-[6-(4-Methanesulfonyl-phenylamino)-5-nitro-pyrimidin-4-yloxy]-piperidin-1-yl}-3,3-dimethyl-butan-2-one] | 86 | – |
